The values that follow come from ChEMBL document CHEMBL1240301, “Assignment of protein function in the postgenomic era” (Nat Chem Biol, 2005).

pIC50: −log10 of the molar value.

What is called pIC50 is −log10 of the IC50, conventionally taken in molar units.

In experiment [1] the target is Calcium/calmodulin-dependent protein kinase type II subunit alpha (Homo sapiens, UniProt Q9UQM7, F89G). As to the kind of experiment: Inhibition of CAMK2 F89G mutant.
Experiment [2] can be described thus: Inhibition of wild-type v-Src.
Experiment [3] in a line: Inhibition of c-Fyn T339G mutant.
Experiment [4] in a line: Inhibition of v-Src kinase I338G mutant.
For experiment [5], the target named is Cyclin-dependent kinase 2 (Homo sapiens, UniProt P24941, F80G). In words: Inhibition of CDK2 F80G mutant.
Experiment [6] deals with Cyclin-dependent kinase 2 (Homo sapiens, UniProt P24941). In words: Inhibition of wild type CDK2.
Experiment [7] is described as follows: Inhibition of wild type CAMK2.
For experiment [8], the target named is Tyrosine-protein kinase ABL1 (Homo sapiens, UniProt P00519). In words: Inhibition of wild type c-Abl.
For experiment [9], the target named is Tyrosine-protein kinase ABL1 (Homo sapiens, UniProt P00519, T315A). As to the kind of experiment: Inhibition of c-Abl T315A mutant.
In experiment [10] the target is Tyrosine-protein kinase Fyn (Homo sapiens, UniProt P06241). As to the kind of experiment: Inhibition of wild type c-Fyn.
Chain of Tyrosine-protein kinase Fyn (P06241 whole entry): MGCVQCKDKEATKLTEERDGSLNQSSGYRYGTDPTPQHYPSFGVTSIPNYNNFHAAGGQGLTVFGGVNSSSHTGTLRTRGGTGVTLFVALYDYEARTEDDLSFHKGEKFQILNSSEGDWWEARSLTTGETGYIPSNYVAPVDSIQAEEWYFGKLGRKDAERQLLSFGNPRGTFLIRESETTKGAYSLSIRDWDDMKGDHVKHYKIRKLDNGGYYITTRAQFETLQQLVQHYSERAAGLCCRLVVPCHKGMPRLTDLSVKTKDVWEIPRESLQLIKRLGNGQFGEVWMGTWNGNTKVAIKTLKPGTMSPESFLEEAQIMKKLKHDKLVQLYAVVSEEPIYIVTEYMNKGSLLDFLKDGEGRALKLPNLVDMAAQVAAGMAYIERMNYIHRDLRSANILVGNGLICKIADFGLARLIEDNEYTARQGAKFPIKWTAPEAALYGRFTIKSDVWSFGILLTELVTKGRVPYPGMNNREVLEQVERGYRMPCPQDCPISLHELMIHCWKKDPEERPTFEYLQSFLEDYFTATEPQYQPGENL

Chain of Tyrosine-protein kinase ABL1 (Homo sapiens, UniProt P00519, T315A) (P00519 whole entry T315A): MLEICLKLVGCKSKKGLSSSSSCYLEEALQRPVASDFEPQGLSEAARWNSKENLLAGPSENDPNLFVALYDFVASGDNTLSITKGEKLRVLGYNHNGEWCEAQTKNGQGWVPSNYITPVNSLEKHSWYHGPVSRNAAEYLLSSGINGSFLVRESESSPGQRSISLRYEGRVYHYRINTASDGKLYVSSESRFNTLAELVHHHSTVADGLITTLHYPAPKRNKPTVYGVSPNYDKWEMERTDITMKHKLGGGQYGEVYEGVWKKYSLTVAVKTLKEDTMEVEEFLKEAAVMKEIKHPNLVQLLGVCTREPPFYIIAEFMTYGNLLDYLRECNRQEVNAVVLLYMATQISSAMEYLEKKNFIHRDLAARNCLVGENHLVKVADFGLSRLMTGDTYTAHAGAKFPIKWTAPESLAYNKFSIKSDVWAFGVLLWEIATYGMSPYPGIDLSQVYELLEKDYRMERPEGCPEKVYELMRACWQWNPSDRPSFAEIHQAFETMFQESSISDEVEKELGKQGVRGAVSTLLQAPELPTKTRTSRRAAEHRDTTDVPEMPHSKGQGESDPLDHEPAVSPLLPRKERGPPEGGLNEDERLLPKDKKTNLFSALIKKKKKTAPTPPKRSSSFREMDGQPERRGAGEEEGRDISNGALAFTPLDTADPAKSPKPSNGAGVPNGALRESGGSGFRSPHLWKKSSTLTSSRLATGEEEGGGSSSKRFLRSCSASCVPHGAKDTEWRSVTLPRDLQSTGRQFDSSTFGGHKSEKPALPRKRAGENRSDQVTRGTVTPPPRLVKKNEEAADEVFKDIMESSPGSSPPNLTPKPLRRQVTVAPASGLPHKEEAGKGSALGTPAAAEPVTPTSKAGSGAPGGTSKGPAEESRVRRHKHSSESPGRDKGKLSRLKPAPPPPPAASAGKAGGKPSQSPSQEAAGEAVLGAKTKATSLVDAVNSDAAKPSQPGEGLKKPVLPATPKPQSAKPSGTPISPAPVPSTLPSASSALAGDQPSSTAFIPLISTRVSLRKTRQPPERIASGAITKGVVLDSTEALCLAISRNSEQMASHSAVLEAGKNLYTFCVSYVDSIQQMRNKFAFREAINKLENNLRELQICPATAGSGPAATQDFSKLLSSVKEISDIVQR
Chain of Calcium/calmodulin-dependent protein kinase type II subunit alpha (Q9UQM7 whole entry F89G): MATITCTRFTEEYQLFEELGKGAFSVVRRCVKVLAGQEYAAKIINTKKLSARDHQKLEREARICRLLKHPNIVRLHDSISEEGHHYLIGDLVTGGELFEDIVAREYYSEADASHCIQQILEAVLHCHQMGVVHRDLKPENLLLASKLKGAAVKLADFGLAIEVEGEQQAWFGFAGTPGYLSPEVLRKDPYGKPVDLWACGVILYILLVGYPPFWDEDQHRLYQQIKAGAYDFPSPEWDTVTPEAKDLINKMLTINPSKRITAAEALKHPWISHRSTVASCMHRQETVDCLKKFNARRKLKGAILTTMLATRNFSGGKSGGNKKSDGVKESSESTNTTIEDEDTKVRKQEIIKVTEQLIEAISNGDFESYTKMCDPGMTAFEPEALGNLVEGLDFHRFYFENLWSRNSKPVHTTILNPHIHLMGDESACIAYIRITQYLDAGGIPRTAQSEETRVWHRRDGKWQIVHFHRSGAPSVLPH
Chain of Tyrosine-protein kinase ABL1 (Homo sapiens, UniProt P00519) (P00519 whole entry): as the sequence (P00519 whole entry T315A) above, with A315T counted along it

Consider `CC(C)(C)n1nc(-c2cccc3ccccc23)c2c(N)ncnc21`, for which the pIC50 in experiment [1] is 7.01; in [2] it was 6.00; in experiment [3] it was 8.19; in experiment [4], 8.82; in [5] it was 7.82; in [6], 4.74. Also, the pIC50 in experiment [7] was 4.66.

Consider `CC(C)(C)n1nc(Cc2cccc3ccccc23)c2c(N)ncnc21`, for which the pIC50 in experiment [8] is 5.47; in experiment [2], 4.55; in experiment [3], 8.49; in [4], 8.37; in experiment [9], 6.92; in experiment [6], 4.54. In addition, the values for the pIC50 in experiment [7] and in experiment [10] were 4.62 and 6.00, respectively.
